{"source": "paper PMC3600154", "about": "(Nature, 2013)", "target": "mouse CALHM1 (Mus musculus, UniProt D3Z291)", "sequence (D3Z291 whole entry)": "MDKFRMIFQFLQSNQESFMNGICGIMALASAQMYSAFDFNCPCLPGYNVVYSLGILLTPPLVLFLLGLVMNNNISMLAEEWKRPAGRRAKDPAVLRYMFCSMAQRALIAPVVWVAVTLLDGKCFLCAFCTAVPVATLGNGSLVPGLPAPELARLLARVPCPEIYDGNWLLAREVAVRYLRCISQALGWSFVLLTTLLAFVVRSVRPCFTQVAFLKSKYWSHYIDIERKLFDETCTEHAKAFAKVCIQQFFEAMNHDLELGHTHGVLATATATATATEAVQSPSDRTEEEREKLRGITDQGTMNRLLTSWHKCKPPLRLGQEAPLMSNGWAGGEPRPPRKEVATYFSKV", "details": "permeant released through the channel; pH 7.4", "data": [{"smiles": "Nc1ncnc2c1ncn2[C@@H]1O[C@H](COP(=O)(O)OP(=O)(O)OP(=O)(O)O)[C@@H](O)[C@H]1O", "note": "[ATP, adenosine 5′-triphosphate]", "values": [{"measurement": "luciferin-luciferase ATP release assay, transfected HeLa cells", "value": "Expression of mouse CALHM1 conferred ATP release with similar properties"}]}]}
